These results are taken from ChEMBL document CHEMBL1126423, “Acid-catalyzed O-allylation of -hydroxy--amino acids: an entry into conformationally constrained dipeptide surrogates” (Bioorg Med Chem Lett, 1992).

This test addresses T1, Angiotensin-converting enzyme (Oryctolagus cuniculus, UniProt P12822).
T1 sequence (P12822 whole entry): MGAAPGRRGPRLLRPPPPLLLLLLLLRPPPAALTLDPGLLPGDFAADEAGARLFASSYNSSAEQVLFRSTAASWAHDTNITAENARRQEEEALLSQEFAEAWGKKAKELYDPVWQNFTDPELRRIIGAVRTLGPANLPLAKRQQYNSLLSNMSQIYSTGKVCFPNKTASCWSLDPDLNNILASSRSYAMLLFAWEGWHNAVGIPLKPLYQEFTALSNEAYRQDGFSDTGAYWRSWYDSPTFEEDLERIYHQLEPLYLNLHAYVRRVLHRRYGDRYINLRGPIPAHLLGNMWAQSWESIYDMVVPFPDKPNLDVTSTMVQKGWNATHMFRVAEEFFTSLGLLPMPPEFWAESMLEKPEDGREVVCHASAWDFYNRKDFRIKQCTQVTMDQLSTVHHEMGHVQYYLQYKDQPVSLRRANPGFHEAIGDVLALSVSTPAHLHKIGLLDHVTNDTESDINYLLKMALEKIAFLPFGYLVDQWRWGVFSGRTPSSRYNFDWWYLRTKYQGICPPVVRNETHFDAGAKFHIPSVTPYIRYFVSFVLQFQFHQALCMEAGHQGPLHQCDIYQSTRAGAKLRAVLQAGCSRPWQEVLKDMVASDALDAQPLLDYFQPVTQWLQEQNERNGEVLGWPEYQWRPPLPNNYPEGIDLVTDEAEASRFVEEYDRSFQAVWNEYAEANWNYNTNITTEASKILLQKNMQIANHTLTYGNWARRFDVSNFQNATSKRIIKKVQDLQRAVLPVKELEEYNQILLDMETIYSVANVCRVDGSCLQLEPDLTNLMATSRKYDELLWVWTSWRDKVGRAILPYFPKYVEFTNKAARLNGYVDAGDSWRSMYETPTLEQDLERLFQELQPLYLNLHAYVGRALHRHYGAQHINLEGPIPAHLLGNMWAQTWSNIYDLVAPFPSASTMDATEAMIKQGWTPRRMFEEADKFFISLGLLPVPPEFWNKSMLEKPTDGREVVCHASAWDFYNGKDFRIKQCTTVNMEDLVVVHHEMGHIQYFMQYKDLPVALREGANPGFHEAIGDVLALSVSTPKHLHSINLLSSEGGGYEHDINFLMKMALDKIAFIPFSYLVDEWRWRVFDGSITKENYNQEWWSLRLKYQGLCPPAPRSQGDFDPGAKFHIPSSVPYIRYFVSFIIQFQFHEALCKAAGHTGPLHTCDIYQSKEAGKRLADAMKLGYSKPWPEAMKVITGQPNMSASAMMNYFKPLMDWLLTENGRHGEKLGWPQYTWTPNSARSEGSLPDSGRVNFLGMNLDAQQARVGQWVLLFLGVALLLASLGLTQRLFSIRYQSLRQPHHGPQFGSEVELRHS
In words: Inhibitory concentration against rabbit lung Angiotensin I converting enzyme (ACE).

Take `O=C(O)[C@H](CCc1ccccc1)NC1Cc2ccccc2C2COC[C@H](C(=O)O)N2C1=O` (stereo partly specified): the IC50 turned out to be 0.09 nM.

As a reminder, the IC50 is the concentration needed to halve the response being measured. Lower therefore signals inhibition by little substance.
